Assay results: US8987242B2, “Morpholinone compounds as factor IXA inhibitors” (Merck Sharp & Dohme Corp., priority 2008, dated 2015)
Where a name gives a salt, the structure may show the parent alone.

target: human factor IXa (Homo sapiens (Human), UniProt P00740); test: Determination of inhibitory activity against factor IXa (SPECTROFLUOR FIXa fluorogenic substrate enzyme assay); type: biochemical; details: human factor IXa 2.0 μg/ml, SPECTROFLUOR FIXa 100 μM, 60 minutes at room temperature, pH 8.0; read-out: Factor IXa enzyme assay IC50
Protocol: Inhibitory activity against factor IXa was tested using the substrate SPECTROFLUOR FIXa (american diagnostica inc.; 500 West Avenue, Stamford, Conn. 06902 USA; Pr. No. 299F) and human factor IXa (american diagnostica inc.; Pr. No. 449b). Test substances dissolved in buffer A (50 mM α,α,α-tris(hydroxymethyl)methylamine (Tris), 100 mM NaCl, 5 mM CaCl2, 15% (v/v) ethylene glycol, pH 8.0) were mixed with factor IXa (2.0 μg/ml final concentration). The enzyme reaction was started by addition of SPECTROFLUOR FIXa (100 μM final concentration). After incubation for 60 minutes at room temperature, the reaction was stopped by the addition of 20% (v/v) acetic acid solution, and then measured the fluorescence value (Excitation Wavelength: 355 nm, Emission Wavelength; 460 nm) in a microtiter plate reader (ARVO 1420 Multilabel Counter; PerkinElmer).
The IC50 was calculated from a dilution series of the test substance with the aid of the software, Symix Assay Explorer (Symyx Technologies, Inc.).

Sequence of human factor IXa (P00740 227-461): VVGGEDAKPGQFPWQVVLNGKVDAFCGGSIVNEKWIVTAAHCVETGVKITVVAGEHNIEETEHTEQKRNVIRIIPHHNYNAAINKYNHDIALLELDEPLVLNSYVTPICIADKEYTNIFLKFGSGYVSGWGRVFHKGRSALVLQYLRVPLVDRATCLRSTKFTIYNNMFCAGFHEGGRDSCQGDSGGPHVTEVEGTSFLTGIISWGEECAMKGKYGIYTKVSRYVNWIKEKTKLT
Sequence of human factor IXa (P00740 47-191 partner): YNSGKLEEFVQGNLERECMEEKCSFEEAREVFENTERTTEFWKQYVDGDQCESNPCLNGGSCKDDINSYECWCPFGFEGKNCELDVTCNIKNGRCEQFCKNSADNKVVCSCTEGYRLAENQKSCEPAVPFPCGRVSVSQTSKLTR

IC50 [nM] | Structure (SMILES)
66 | N#Cc1ccccc1N1CCO[C@H]([C@@H](O)C(=O)Nc2ccc3c(c2)CNC3=N)C1=O [Example aa142, 4-(2-Cyanophenyl)-N-(2,3-dihydro-1-imino-1h-isoindol-5-yl)-alpha(R)-hydroxy-3-oxo-2(R)-morpholine acetamide]
13 | N=C1NCc2cc(NC(=O)[C@H](O)[C@H]3OCCN(c4ccc(F)c(C(=O)N5CCOCC5)c4)C3=O)ccc21 [Example aa144, N-(2,3-Dihydro-1-imino-1h-isoindol-5-yl)-4-[4-fluoro-3-(4-morpholinylcarbonyl)phenyl]-alpha(R)-hydroxy-3-oxo-2(R)-morpholineacetamide]
380 | Nc1noc2cc(NC(=O)[C@H](O)[C@H]3OCCN(c4ccc(S(F)(F)(F)(F)F)cc4)C3=O)ccc12 [Example aa151, [4-[2(R)-[2-[(3-Amino-1,2-bcnzisoxazol-6-yl)amino]-1(R)-hydroxy-2-oxoethyl]-3-oxo-4-morpholinyl]phenyl] pentafluorosulfur]
1200 | Nc1noc2cc(NC(=O)[C@H](O)[C@H]3OCCN(c4ccc(F)c(C(=O)N5CCOCC5)c4)C3=O)c(F)cc12 [Example aa152, N-(3-Amino-5-fluoro-1,2-benzisoxazol-6-yl)-4-[4-fluoro-3-(4-morpholinylcarbonyl)phenyl]-alpha(R)-hydroxy-3-oxo-2(R)-morpholineacetamide]

same assay, conditions: human factor IXa 2.0 μg/ml, SPECTROFLUOR FIXa 100 μM, 60 minutes at room temperature, pH 8.0; read-out: Factor IXa enzyme assay IC50 [micro M]

IC50 [nM] | Structure (SMILES)
40 | Cc1ccc(N2CCOC(C(O)C(=O)Nc3ccc4c(N)nccc4c3)C2=O)cc1 (stereo not shown) [Example 1, N-(1-aminoisoquinolin-6-yl)-2-hydroxy-2-(3-oxo-4-p-tolylmorpholin-2-yl)acetamide trifluoroacetate]
20 | N=C(N)c1ccc(NC(=O)[C@H](O)[C@H]2OCCN(c3ccc(C4CCCCC4)cc3)C2=O)cc1 [Example 15, (2R)—N-(4-amidinophenyl)-2-[(2R)-4-(4-cyclohexylphenyl)-3-oxomorpholin-2-yl]-2-hydroxyacetamide hydrochloride]
20 | N=C(N)c1ccc(NC(=O)[C@H](O)[C@H]2OCCN(c3cccc(NC(=O)CO)c3)C2=O)cc1 [Example 50, (2R)—N-(4-amidinophenyl)-2-hydroxy-2-[(2R)-4-[3-[(2-hydroxyacetyl)amino]phenyl]-3-oxomorpholin-2-yl]acetamide hydrochloride]
20 | Cc1ccc(N2CCO[C@H]([C@@H](O)C(=O)Nc3ccc4c(N)nccc4c3)C2=O)cc1 [Example 62, (2R)—N-(1-aminoisoquinolin-6-yl)-2-hydroxy-2-[(2R)-3-oxo-4-p-tolylmorpholin-2-yl]acetamide hydrochloride]
60 | CC(C)(C)c1ccc(N2CCO[C@H]([C@@H](O)C(=O)Nc3ccc(C(=N)N)cc3F)C2=O)cc1 [Example 67, (2R)—N-(4-amidino-2-fluorophenyl)-2-[(2R)-4-(4-tert-butylphenyl)-3-oxomorpholin-2-yl]-2-hydroxyacetamide acetate]
10 | CS(=O)(=O)c1ccccc1-c1ccc(N2CCO[C@H]([C@@H](O)C(=O)Nc3ccc(C(=N)N)cc3)C2=O)cc1 [Example 105, (2R)—N-(4-amidinophenyl)-2-hydroxy-2-[(2R)-4-[4-(2-methylsulfonylphenyl)phenyl]-3-oxomorpholin-2-yl]acetamide hydrochloride]
60 | CC(=O)N1CCN(c2ccc(C)cc2)C(=O)C1C(O)C(=O)Nc1ccc2c(N)nccc2c1 (stereo not shown) [Example 109, 2-[1-acetyl-3-oxo-4-(p-tolyl)piperazin-2-yl]-N-(1-amino-6-isoquinolyl)-2-hydroxy-acetamide trifluoroacetate]
30 | Cc1ccc(N2CCCO[C@H]([C@@H](O)C(=O)Nc3ccc(C(=N)N)cc3)C2=O)cc1 [Example 114, (2R)—N-(4-amidinophenyl)-2-hydroxy-2-[(2R)-3-oxo-4-(p-tolyl)-1,4-oxazepan-2-yl]acetamide hydrochloride]

Structure (SMILES) | IC50 [nM]
Cc1ccc(N2CCOC(C(O)C(=O)Nc3ccc(C(=N)N)cc3)C2=O)cc1 (stereo not shown) [Example 2, N-(4-amidinophenyl)-2-hydroxy-2-(3-oxo-4-p-tolylmorpholin-2-yl)acetamide trifluoroacetate] | 30
